Broadly, the IC50 is the point on the concentration scale where inhibition reaches its midpoint. A low value points to greater potency in that assay.

The results in this text go back to US12649735B2 (HAIHE BIOPHARMA CO., LTD., priority 2019, dated 2026).

Experiment [1] concerns the target T1, bromodomain protein BRD4 BD1 (Homo sapiens, UniProt O60885).
T1 construct: The proteins BRD4 BD1/BD2 used in the experiment were purchased from Active Motif Company (Cat. No. 31380/31446); purchased Active Motif 31380
The experiment can be described thus: HTRF in vitro assay, inhibitory activity against BRD4 BD1. In kind it is binding. The conditions noted are these: BRD4(1) 30 nM in final system. The method, then: In this example, the half inhibitory activity (IC50) of the compounds of the present invention against the bromodomain protein BRD4 BD1 was determined.
(§1) The inhibitory activity of the compound against BRD4 BD1 was determined by using Homogeneous Time-Resolved Fluorescence (HTRF).
(§2) The proteins BRD4 BD1/BD2 used in the experiment were purchased from Active Motif Company (Cat. No. 31380/31446); Streptavidin XL-665 (#610SAXLA) and EPIgeneous Binding Domain Kit A (#62BDAPEG) were purchased from Cisbio Bioassays Company, [Lys(5,8,12,16)Ac]H4(1-21)-biotin (#64989), and [Lys(5,8,12,16)Ac]H4(1-25) were products of AnaSpec company; OTX015 and ABBV-075 were purchased from SelleckChem. 384 Well ProxiPlate (#6008280) was purchased from PerkinElmer. The multifunctional microplate reader used for the experimental was a product of PerkinElmer, model: Envision 2104. The experimental water was Millipore-Q pure water.
(§3) 10 mM of stock solution of compound in DMSO was diluted to 1 mM with DMSO and stored, and then diluted 10 times with Binding Domain dilution buffer (purchased from Cisbio Bioassays) for use (the concentration of DMSO in the final system was […]), 1:5 gradient dilution, a total of 5 concentrations.
(§4) 4. Test Method: 1 Batch, 2 Duplicate Wells
(§5) • 1) 5 μL of test compound was transferred to 45 μL of Binding Domain dilution buffer. • 2) 2 μL of 10× compound (4 μL Binding Domain dilution buffer: positive control; 6 μL enzyme buffer (purchased from Cisbio Bioassays): negative control) was transferred to the reaction plate. • 3) 4 μL of 5×BRD4(1) or BRD4(2) (30 nM in final system) was added to the reaction plate. • 4) 4 μL of 5×[Lys(5,8,12,16)Ac]H4(1-21)-biotin was added to the reaction plate, and the plate was covered with a film, and incubated at 37° C. for 30 min. • 5) A detection mixture of SA-XL665 (2×) and anti-H3K9me0-Eu(K) (2×) was prepared in detection buffer (purchased from Cisbio Bioassays). • 6) 10 μL of detection mixture (2×) was added to each well, and incubated for 3 h at room temperature, and the mp value was read using a multi-plate reader Envision. The parameters were set as follows.
(In TR-FRET formats the signal depends on donor and acceptor labels being close together.)

Experiment [2] concerns the target T2, bromodomain protein BRD4 BD2 (Homo sapiens, UniProt O60885).
T2 construct: The proteins BRD4 BD1/BD2 used in the experiment were purchased from Active Motif Company (Cat. No. 31380/31446); purchased Active Motif 31446
Briefly: HTRF in vitro assay, inhibitory activity against BRD4 BD2. In kind it is binding. Particulars: BRD4(2) 30 nM in final system. How it is done: as §1, §2, §3, §4, §5

Turning to `CC(c1ccccc1)c1cn(C)c(=O)c2[nH]c(-c3cnoc3)cc12` (centres unmarked) [Compound A20, 2-(isoxazol-4-yl)-6-methyl-4-(1-phenethyl)-1H-pyrrolo[2,3-c]pyridin-7(6H)-one], the IC50 in experiment [1] was 100 to 1000 nM; in experiment [2] it was 10 to 100 nM.

On to `CCNC(=O)n1cc2c(Cc3ccccc3)cn(C)c(=O)c2c1` [Compound A3, 7-benzyl-N-ethyl-5-methyl-4-oxo-4,5-dihydro-2H-pyrrolo[3,4-c]pyridin-2-carboxamide], for which the figures for the IC50 in experiment [1] and in experiment [2] were 100 to 1000 nM and 10 to 100 nM, respectively.

In the case of `CCNC(=O)c1cc2c(-c3nc(CO)cn3-c3ccc(C)cc3)cn(C)c(=O)c2[nH]1` [Compound A36, N-ethyl-4-(4-(hydroxymethyl)-1-(p-tolyl)-1H-imidazol-2-yl)-6-methyl-7-oxo-6,7-dihydro-1H-pyrrolo[2,3-c]pyridin-2-carboxamide], the IC50 in experiment [1] lay within 100 to 1000 nM; in experiment [2] it was 10 to 100 nM.

Regarding `CC(c1ccccc1)c1cn(C)c(=O)c2[nH]c(-c3cnn(C4COC4)c3)cc12` (centres unmarked) [Compound A17, 6-methyl-2-(1-(oxetan-3-yl)-1H-pyrazol-4-yl)-4-(1-phenethyl)-1,6-dihydro-7H-pyrrolo[2,3-c]pyridin-7-one], the IC50 is 100 to 1000 nM in experiment [1] and not above 10 nM in experiment [2].

Turning to `CC(c1ccccc1)c1cn(C)c(=O)c2[nH]c(-c3ccnc(C(F)(F)F)c3)cc12` (centres unmarked) [Compound A16, 6-methyl-4-(1-phenethyl)-2-(2-(trifluoromethyl)pyridin-4-yl)-1,6-dihydro-7H-pyrrolo[2,3-c]pyridin-7-one], the IC50 was 100 to 1000 nM in experiment [1] and 10 to 100 nM in experiment [2].

As for `Cc1ccc(C2CCC(=O)N2c2cn(C)c(=O)c3[nH]c(C(=O)Nc4cn[nH]c4)cc23)cc1` (centres unmarked) [Compound A54], the IC50 in experiment [1] was 100 to 1000 nM; in experiment [2], 10 to 100 nM.

Regarding `CCNC(=O)c1cc2c(C(C)c3cccnc3)cn(C)c(=O)c2[nH]1` (centres unmarked) [Compound A11, N-ethyl-6-methyl-7-oxo-4-(1-(pyridin-3-yl)ethyl)-6,7-dihydro-1H-pyrrolo[2,3-c]pyridin-2-carboxamide], the IC50 in experiment [1] was 100 to 1000 nM; in experiment [2], not above 10 nM.

For the compound `CCNC(=O)c1cc2c(-c3cc(C(C)(C)O)c4cccnc4c3C)cn(C)c(=O)c2[nH]1` [Compound A40, N-ethyl-4-(5-(2-hydroxypropan-2-yl)-8-methylquinolin-7-yl)-6-methyl-7-oxo-6,7-dihydro-1H-pyrrolo[2,3-c]pyridin-2-carboxamide], the 50% inhibitory concentration (IC50) in experiment [1] was 10 to 100 nM; in experiment [2] it was not above 10 nM.

Turning to `Cc1cc(C)cc(-n2c(-c3cn(C)c(=O)c4[nH]c(C(=O)Nc5ccn(C)n5)cc34)nc3ncccc32)c1` [Compound A51], the IC50 in experiment [1] is 10 to 100 nM; in experiment [2], not above 10 nM.

As to `Cc1cc(F)cc(C)c1-n1c(-c2cn(C)c(=O)c3[nH]c(C(=O)Nc4ccn(C)n4)cc23)nc2ncccc21` [Compound A52], the IC50 in experiment [1] is 10 to 100 nM; in experiment [2] it was not above 10 nM.

As for `CC(c1ccccc1)c1cn(C)c(=O)c2[nH]c(-c3ccoc3)cc12` (centres unmarked) [Compound A46], the figures for the half-maximal inhibitory concentration (IC50) in experiment [1] and in experiment [2] were 10 to 100 nM and not above 10 nM, respectively.

As to “4-(methoxy(phenyl)methyl)-6-methyl-2-(1-(oxetan-3-yl)-1H-pyrazol-4-yl)-1-tolyl-1,6-dihydro-7H-pyrrolo[2,3-c]pyridin-7-one [Compound A70]”, the IC50 in experiment [1] is 100 to 1000 nM; in experiment [2], 10 to 100 nM.

For `CC(c1ccccc1)c1cn(C)c(=O)c2[nH]c(-c3cncnc3)cc12` (centres unmarked) [Compound A45], the IC50 was 10 to 100 nM in experiment [1] and not above 10 nM in experiment [2].

Take `CC(c1cccc(Cl)c1F)c1cn(C)c(=O)c2[nH]c(-c3cnn(C4COC4)c3)cc12` (centres unmarked) [Compound A75, 4-(1-(3-chloro-2-fluorophenyl)ethyl)-6-methyl-2-(1-(oxetan-3-yl)-1H-pyrazol-4-yl)-1,6-dihydro-7H-pyrrolo[2,3-c]pyridin-7-one]: the IC50 is 100 to 1000 nM in experiment [1] and not above 10 nM in experiment [2].

Regarding `COc1ccc(C(C)c2cn(C)c(=O)c3[nH]c(-c4cnn(C5COC5)c4)cc23)cc1` (centres unmarked) [Compound A73, 4-(1-(4-methoxyphenyl)ethyl)-6-methyl-2-(1-(oxetan-3-yl)-1H-pyrazol-4-yl)-1,6-dihydro-7H-pyrrolo[2,3-c]pyridin-7-one], the half-maximal inhibitory concentration (IC50) in experiment [1] is 100 to 1000 nM; in experiment [2] it was not above 10 nM.

Regarding `CC(c1ccc2ccccc2c1)c1cn(C)c(=O)c2[nH]c(C(=O)Nc3cnn(C)c3)cc12` (centres unmarked) [Compound A13], the half-maximal inhibitory concentration (IC50) is 100 to 1000 nM in experiment [1] and not above 10 nM in experiment [2].

For `CC(c1ccc(F)cc1)c1cn(C)c(=O)c2[nH]c(-c3cn[nH]c3)cc12` (centres unmarked) [Compound A19, 4-(1-(4-fluorophenyl)ethyl)-6-methyl-2-(1H-pyrazol-4-yl)-1,6-dihydro-7H-pyrrolo[2,3-c]pyridin-7-one], the IC50 is 100 to 1000 nM in experiment [1] and not above 10 nM in experiment [2].

Consider `CCNC(=O)c1cc2c(-c3cc(C(C)=O)c4cccnc4c3OC)cn(C)c(=O)c2[nH]1` [Compound A37, 4-(5-acetyl-8-methoxyquinolin-7-yl)-N-ethyl-6-methyl-7-oxo-6,7-dihydro-1H-pyrrolo[2,3-c]pyridin-2-carboxamide], for which the half-inhibitory concentration (IC50) in experiment [1] fell in the range of 100 to 1000 nM; in experiment [2], 10 to 100 nM.

Regarding `Cc1ccc(-n2c(-c3cn(C)c(=O)c4[nH]c(-c5cnn(C)c5)cc34)nc3ncccc32)cc1` [Compound A50], the half-inhibitory concentration (IC50) in experiment [1] and in experiment [2] was 10 to 100 nM in each case.

As for `CCNC(=O)c1cc2c(/C(=C/c3ccccc3)c3ccccc3)cn(C)c(=O)c2[nH]1` [Compound A24, (E)-4-(1,2-diphenylvinyl)-N-ethyl-6-methyl-7-oxo-6,7-dihydro-1H-pyrrolo[2,3-c]pyridin-2-carboxamide], the IC50 in experiment [1] was 100 to 1000 nM; in experiment [2], 10 to 100 nM.

On to `CCNC(=O)c1cc2c(-c3cc(CO)c4ccccc4c3C3CC3)cn(C)c(=O)c2[nH]1` [Compound A32, 4-(1-cyclopropyl-4-(hydroxymethyl)naphthalen-2-yl)-N-ethyl-6-methyl-7-oxo-6,7-dihydro-1H-pyrrolo[2,3-c]pyridin-2-carboxamide], for which the concentration for half-maximal inhibition (IC50) in experiment [1] was 10 to 100 nM; in experiment [2], not above 10 nM.

With `CC(c1ccccc1)c1cn(C)c(=O)c2[nH]c(-c3cn[nH]c3)cc12` (centres unmarked) [Compound A15, 6-methyl-4-(1-phenethyl)-2-(1H-pyrazol-4-yl)-1,6-dihydro-7H-pyrrolo[2,3-c]pyridin-7-one], the values for the IC50 in experiment [1] and in experiment [2] were 100 to 1000 nM and not above 10 nM, respectively.

In the case of `CCNC(=O)c1cc2c(Cc3ccccc3)cn(C)c(=O)c2[nH]1` [Compound A10, 4-benzyl-N-ethylamino-6-methyl-7-oxo-6,7-dihydro-1H-pyrrolo[2,3-c]pyridin-2-carboxamide], the results for the half-inhibitory concentration (IC50) in experiment [1] and in experiment [2] were 100 to 1000 nM and 10 to 100 nM, respectively.

In the case of `CC(c1ccccc1)c1cn(C)c(=O)c2[nH]c(-c3cnn(C)c3)cc12` (centres unmarked) [Compound A18, 6-methyl-2-(1-methyl-1H-pyrazol-4-yl)-4-(1-phenethyl)-1,6-dihydro-7H-pyrrolo[2,3-c]pyridin-7-one], the figures for the IC50 in experiment [1] and in experiment [2] were 100 to 1000 nM and not above 10 nM, respectively.

As for `Cc1ccc(C2CCC(=O)N2c2cn(C)c(=O)c3[nH]c(-c4cnn(C)c4)cc23)cc1` (centres unmarked) [Compound A48, 6-methyl-2-(1-methyl-1H-pyrazol-4-yl)-4-(2-oxo-5-(p-tolyl)pyrrolidin-1-yl)-1,6-dihydro-7H-pyrrolo[2,3-c]pyridin-7-one], the half-maximal inhibitory concentration (IC50) in experiment [1] was 100 to 1000 nM; in experiment [2], 10 to 100 nM.
